Earlier results as cited in patent publication US20110008495A1, “LIQUID DIETARY SUPPLEMENT COMPOSITION” (NAWGAN PRODUCTS, LLC, priority 2009, published 2011).

Key:
[1] = test system: individuals diagnosed with mild to moderate Alzheimer's disease
[2] = midlife caffeine consumption
diabetic animals = details: long-term consumption in distilled water

C[N+](C)(C)CCOP(=O)([O-])OC[C@H](O)CO [A-GPC, α-glyceryl phosphoryl choline]
absolute magnitude of change in overall cognitive ability (Mini Mental State Exam) ([1]; A-GPC over a 6 month period): offset a full year of typical decline | verbal memory and overall cognitive ability ([1]; A-GPC over a 6 month period vs patients not given A-GPC, 126 individuals): significant improvements

Cn1c(=O)c2c(ncn2C)n(C)c1=O [caffeine]
risk of dementia later in life [2]: significantly reduces

CC(C)=CCC/C(C)=C/C=C/C(C)=C/C=C/C(C)=C/C=C/C=C(C)/C=C/C=C(C)/C=C/C=C(\C)CCC=C(C)C [lycopene]
markers of inflammation and oxidation (diabetic animals): significantly decreased | memory performance (diabetic animals): significantly improved
